Measurements from patent publication US20110071124A1, “Compounds that Inhibit Production of sAPPB and AB and Uses Thereof” (The Trustees of Columbia University in the City of New York, priority 2008, published 2011).
Where two headings read alike, the source gives them in different places.

Columns and labels:
[1] = tested on: sAPPβ (BACE1 cleavage of SEAP-APPwt) in SY5Y-BACEGFP-SEAPAPPwt cells; test: cell-based BACE1 assay (sAPPβ modified ELISA)
Protocol: FIG. 1. An sAPPβ assay utilized to identify inhibitors of BACE1. The assay utilizes SY5Y cells stably overexpressing BACE-GFP and SEAP-APPwt. Cells are incubated with a candidate compound for 6 hours prior to harvesting media. BACE1-mediated cleavage of APP results in the release of sAPPβ into the media. α-secretase, a competing enzyme that is non-amyloidogenic, also cleaves APP to release […]. Using an sAPPβ-specific antibody (sβwt), SEAP-sAPPβ is specifically captured in a modified ELISA assay. Detection is achieved by addition of the fluorescent alkaline phosphatase substrate, 4-methylumbelliferyl phosphate (4-MUP).
(§1) FIG. 13. […] Compounds were tested in SY5Y-BACEGFP-SEAPAPPwt cells using the cell-based BACE1 assay. Select compounds were also investigated for Aβ-lowering effect using a commercial Aβ ELISA kit (BioSource). All compounds were tested at 8 concentrations (30, 10, 3, 1, 0.3, 0.1, 0.03, and 0.01 μM), and data points were analyzed with Origin software and fitted using a logistic model for IC50 determination.
As described in the Examples below, and depicted in FIG. 1, an sAPPβ ELISA assay may comprise cells, for example, SY5Y cells, transfected with a BACE1 reporter construct, such as a GFP-tagged BACE1 (BACE-GFP), and a wild type APP reporter construct, such as a secreted alkaline phosphatase (SEAP)-tagged wild type APP (SEAP-APPwt). BACE1 cleavage of the reporter-tagged APP (e.g. SEAP-APPwt) may result in secretion into the media of SEAP-tagged sAPPβ, which may be collected and specifically captured using an sAPPβ cleavage site-specific antibody (e.g. stβwt). Following washing, a substrate may be used, for example, the fluorescent alkaline phosphatase substrate 4-methylumbelliferyl phosphate (4-MUP), to detect the captured SEAP-sAPPβ.
A cell-based modified ELISA assay for measuring sAPPβ, the secreted ectodomain of β-amyloid precursor protein (APP) following β-secretase (BACE1) cleavage, was used to identify a class of compounds that interfered with the first step of sAPPβ generation. This assay has been described in International Application PCT/US2007/015938 (Published as International Publication No. WO 08/008463), which is herein incorporated in its entirety for all purposes.
The SY5Y-BACEGFP-SEAPAPPwt cell based assay was developed to discover novel small molecule modulators of BACE1 activity. SY5Y cells were stably transfected with GFP-tagged BACE1 (BACE-GFP) and secreted alkaline phosphatase (SEAP)-tagged wildtype APP (SEAP-APPwt). BACE1 cleavage of SEAP-APPwt results in secretion into the media of SEAP-tagged sAPPβ, which is collected and specifically captured using an sAPP0 cleavage site-specific antibody (sβwt). After washing, the fluorescent alkaline phosphatase substrate 4-methylumbelliferyl phosphate (4-MUP) is used to detect the captured SEAP-sAPPβ (FIG. 1).
The 15 LDDN compounds selected based on their 3-point dose-response profile were tested at 12 concentrations (ranging from 0.1 nM to 30 μM) in the cell-based BACE1 assay. The assay was conducted in 96-well format to maximize the Z′ factor. Compounds were characterized in duplicate cell plates, each containing 12 doses of compound in triplicate. Cell viability was measured at 6 and 24 hours using Promega's Cell Titer-Glo kit according to the manufacturer's protocol. The dose-response curves for sAPPβ reduction were plotted using Origin software and fitted using a logistic model for IC50 determination.
(§2) 27 structural analogs of LDN-0057228 were synthesized and tested using the cell-based BACE1 assay in SY5Y-BACEGFP-SEAPAPPwt cells (FIG. 13). 4 analogs, in addition to the parent compound, were also assessed for Aβ40 lowering activity using a commercial Aβ kit (BioSource). Because LDN-0057228 resembles CNS monoamine transporter inhibitors, this analog series was given the designation “CNS.” LDN-0057228 gave an unexpectedly low potency (IC50˜20 μM for both sAPPβ and Aβ40 reduction) compared to the ˜7 μM potency obtained using the same compound in FIG. 8.

[2] = tested on: Aβ40 in SY5Y-BACEGFP-SEAPAPPwt cells; test: Aβ40 ELISA (BioSource) in SY5Y-BACEGFP-SEAPAPPwt cells; type: cell-based; conditions: for IC50: SAR study, 8 concentrations (30-0.01 μM), SY5Y-BACEGFP-SEAPAPPwt cells
Protocol: FIG. 11. 5 LDDN compounds reduce Aβ40 in SYSY-BACEGFP-SEAPAPPwt cells. sAPPβ and 24-hour cell viability was performed as described in Chapter 4.1. Aβ40 ELISA was performed using the Aβ40 ELISA kit (BioSource) according to the manufacturer's protocol. Cell culture media was collected after 6 hours of treatment with 4 concentrations (30, 10, 3, 0.3 μM) of compound and diluted 3:10 prior to loading onto the Aβ ELISA plate. The data points for sAPPβ and Aβ were roughly superimposed. Data points represent mean±s.d. of 3 determinations.
as §1
In other non-limiting embodiments, the effective amount of at least one compound of Formulas I-VII, and/or a compound depicted in FIG. 19, may be correlated with the compound's ability to reduce the level of Aβ40 in an in vitro assay that measures the level of Aβ40 produced in a cell line, for example, an SY5Y-BACEGFP-SEAPAPPwt cell line. In one non-limiting example, the level of Aβ40 expressed by the cell line may be measured through the use of an Aβ40 Elisa kit (Bio Source). In one embodiment, the assay comprises incubating the Aβ40 expressing cells with a compound of Formulas I-VII, and/or a compound depicted in FIG. 19, followed by assaying the concentration of Aβ40 in the cell media. In such an assay, a greater reduction of Aβ40 concentration in the cell media following incubation with a compound compared to a control cell line not contacted with the compound is correlative with the compound's therapeutic efficacy.
The 15 LDDN compounds were tested in SY5Y-BACEGFP-SEAPAPPwt cells for their ability to reduce Aβ40 using a commercial Aβ40 ELISA kit (BioSource). SY5Y-BACEGFP-SEAPAPPwt cells were grown to 100% confluence and incubated with 4 concentrations of each compound (30, 10, 3, 0.3 μM). Cell culture media was collected after 6 hours of compound incubation and diluted 3:10 in sample diluent supplied in the Aβ40 ELISA kit. Aβ ELISA was performed according to the manufacturer's protocol. […] LDN-0057228 and LDN-0069630 are small molecules with ample chemical space for modification, and are thus considered good candidates for medicinal chemistry.
as §2

[3] = SAR study, 8 concentrations (30-0.01 μM), SY5Y-BACEGFP-SEAPAPPwt cells, read-out: IC50(sAPPβ)

| Compound | IC50 [1, 3] | IC50 [2] | IC50 ([1]; 12 concentrations 0.1 nM to 30 μM, 96-well format (FIG. 8), read-out: cell-based IC50 (sAPPβ), 12-point dose-response) | dose-dependent decrease in Aβ40 ([2]; 4 concentrations (30, 10, 3, 0.3 μM), 6 hours) |
| --- | --- | --- | --- | --- |
| O=C(CCc1ccccc1)NC[C@@H]1CCCN1CCOC(c1ccc(F)cc1)c1ccc(F)cc1 [CNS-2] | 8.9 µM | 5 µM |  |  |
| Fc1ccc(C(OCCN2CCC[C@H]2CNCCc2ccccc2)c2ccc(F)cc2)cc1 [LDN-0057228] | ~20 µM | ~20 µM | ~7 µM | caused a dose-dependent decrease in Aβ40 |
